Where no end group is shown, it is not given here.
Tests used:
PfCRT = test: Influx of VF-6 via PfCRT into the oocyte, solutes tested as potential co-substrates; assay type: cell-based, Plasmodium falciparum; set-up: key: X: Compounds that have been tested as potential co-substrates but are not required for influx of VF-6 via PfCRT into the oocyte; conditions: X marks the solute
PfCRT^3D7 = PfCRT^3D7 (Plasmodium falciparum, UniProt Q8IBZ9); test: cell-based; conditions: trans-inhibition, treatment 45 mM
Experimental: The characterisation of [^3H]VF-6 transport via 23 different field and laboratory-derived isoforms of PfCRT was undertaken with oocytes two days post-cRNA-injection (Figs. 3a–j, 4; Supplementary Fig. 2). The oocytes were injected with 25 nL of ND96 buffer (pH 5.5) supplemented with [^3H]VF-6 and unlabelled VF-6 to achieve estimated intracellular concentrations of 1.4 and 200 μM, respectively. Ten oocytes that had resealed at the injection site were transferred to a 5 mL polystyrene round bottom tube (In Vitro Technologies) and washed with 3.5 mL of ND96 buffer before being transferred to separate wells of a white 96-well plate (PerkinElmer). This treatment served to establish the amount of radioactivity within the oocytes immediately prior to the commencement of the transport assay. Another 10 resealed oocytes were transferred to a 5 mL tube and washed with 3.5 mL of ND96 buffer. […] The assay was terminated by removing the reaction buffer with a pipette and washing the oocytes twice with 3.5 mL of ice-cold ND96 buffer. Each oocyte was transferred to a separate well of a white 96-well plate. The oocytes were lysed by the addition of 20 μL of 10% (w/v) SDS and overnight incubation at room temperature. The lysed oocyte was then combined with 150 μL of MicroScint-40 microscintillant (PerkinElmer), the plate covered with a TopSeal-A (PerkinElmer), and the radioactivity measured with a MicroBeta^2 microplate liquid scintillation analyser (PerkinElmer). VF-6 transport was calculated by subtracting the amount of radioactivity (measured in counts per minute) present within the oocytes at the end of the incubation from that measured in the oocytes sampled immediately before the commencement of the assay. The pH-dependence of transport (Fig. 3c) was determined by injecting the oocytes with [^3H]VF-6 suspended in 25 nL ND96 buffer adjusted to pH 5.0, 5.5, 6.0 or 7.0, which corresponded to the injection of 2.5–250 fmol of H^+. The dependence of [^3H]VF-6 transport on Na^+ or Cl^− was examined by injecting the oocytes with [^3H]VF-6 suspended in the control ND96 buffer (pH 5.5) or a version of this buffer that lacked either Na^+ or Cl^− (Supplementary Fig. 2). […] The dependence of peptide transport on Ca^2+ was determined by injecting the oocytes with [^3H]VF-6 suspended in ND96 buffers that contained different concentrations of Ca^2+ (0–5 mM; Supplementary Fig. 2). […] The dependence of PfCRT-mediated transport on the membrane potential was examined by using (1) Na^+ ionophore III in conjunction with the Na^+ gradients listed in Supplementary Data 7 and (2) Cl^− ionophore III in conjunction with the Cl^− gradients listed in Supplementary Data 7 to clamp the membrane potential of the oocyte from −80 to +80 mV. […] The kinetic parameters for VF-6 transport via different isoforms of PfCRT (Figs. 3e and 4a) were determined in SigmaPlot Windows Version 11.0 by a least-squares fit of the Michaelis–Menten equation to the data.
A subset of assays measured the ability of solutes known to interact with PfCRT to either cis-inhibit, trans-inhibit or trans-stimulate [^3H]VF-6 transport. These experiments involved adding these solutes to either the cis- or trans-side of the membrane relative to [^3H]VF-6. […] At least five independent experiments were performed (on different days and using oocytes from different frogs), and within each experiment measurements were made from ten oocytes per treatment.

Sequence of PfCRT^3D7 (Q8IBZ9 59-398): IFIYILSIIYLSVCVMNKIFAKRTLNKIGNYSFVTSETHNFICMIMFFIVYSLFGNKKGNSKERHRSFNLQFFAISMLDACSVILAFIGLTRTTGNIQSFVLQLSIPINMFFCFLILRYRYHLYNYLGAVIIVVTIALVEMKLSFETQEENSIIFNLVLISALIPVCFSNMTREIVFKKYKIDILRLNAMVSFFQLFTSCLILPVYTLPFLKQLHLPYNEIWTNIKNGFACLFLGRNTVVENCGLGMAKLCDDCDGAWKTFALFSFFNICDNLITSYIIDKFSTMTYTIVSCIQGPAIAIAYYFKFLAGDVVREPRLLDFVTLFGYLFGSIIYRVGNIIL

For `N[C@@H](Cc1ccccc1)C(=O)O` [L-phenylalanine], which “Compounds that have been tested as potential co-substrates but are not required for influx of VF-6 via PfCRT into the oocyte” value (PfCRT) is on record?
The value was “X”.

For `CC[C@H](C)[C@H](N)C(=O)O` [L-isoleucine], which “Compounds that have been tested as potential co-substrates but are not required for influx of VF-6 via PfCRT into the oocyte” value (PfCRT) is on record?
The value was “X”.

`N[C@@H](CO)C(=O)O` [L-serine] was tested. Which “Compounds that have been tested as potential co-substrates but are not required for influx of VF-6 via PfCRT into the oocyte” value (PfCRT) did it give?
The value was “X”.

For VDPVNF [VF-6], which “[3H]VF-6 transport, PfCRT3D7 (% PfCRT3D7 control)” value (PfCRT^3D7; Experiment 1) is on record?
The value was 17.84 % PfCRT3D7 control.

And the “[3H]VF-6 transport, PfCRT3D7 (% PfCRT3D7 control)” value (PfCRT^3D7; Experiment 2)?
The value was 18.04 % PfCRT3D7 control.

What about the “[3H]VF-6 transport, PfCRT3D7 (% PfCRT3D7 control)” value (PfCRT^3D7; Experiment 3) of the same molecule?
Its value is 20.27 % PfCRT3D7 control.

And the “[3H]VF-6 transport, PfCRT3D7 (% PfCRT3D7 control)” value (PfCRT^3D7; Experiment 4)?
The value was 18.57 % PfCRT3D7 control.

What about the “[3H]VF-6 transport, PfCRT3D7 (% PfCRT3D7 control)” value (PfCRT^3D7; Experiment 5) of the same molecule?
The value was 17.74 % PfCRT3D7 control.

Which “Compounds that have been tested as potential co-substrates but are not required for influx of VF-6 via PfCRT into the oocyte” value (PfCRT) does the source give for `N=C(N)NCCC[C@H](N)C(=O)O` [L-arginine] here?
Its value is “X”.

`C[C@H](N)C(=O)O` [L-alanine] was tested. Which “Compounds that have been tested as potential co-substrates but are not required for influx of VF-6 via PfCRT into the oocyte” value (PfCRT) did it give?
Its value is “X”.

Which “Compounds that have been tested as potential co-substrates but are not required for influx of VF-6 via PfCRT into the oocyte” value (PfCRT) does the source give for `NC(=O)CC[C@H](N)C(=O)O` [L-glutamine] here?
The value was “X”.

Which “Compounds that have been tested as potential co-substrates but are not required for influx of VF-6 via PfCRT into the oocyte” value (PfCRT) does the source give for `CC(C)[C@H](N)C(=O)O` [L-valine] here?
Its value is “X”.

`NCCCC[C@H](N)C(=O)O` [L-lysine] was tested. Which “Compounds that have been tested as potential co-substrates but are not required for influx of VF-6 via PfCRT into the oocyte” value (PfCRT) did it give?
Its value is “X”.

`NC(=O)C[C@H](N)C(=O)O` [L-asparagine] was tested. Which “Compounds that have been tested as potential co-substrates but are not required for influx of VF-6 via PfCRT into the oocyte” value (PfCRT) did it give?
The value was “X”.

Reference: article PMC7413254 (Nature Communications, 2020)
